From ChEMBL document CHEMBL1201862, “PubChem BioAssay data set” (2004)
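Interpolation was linear, between the two tested concentrations surrounding the appropriate level; five concentrations were tested over 48 hours in 96-well plates. At the GI50, growth is halved.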 Active and inactive are the calls of the source. Cut-off read from the data, not from the text of the source: active = GI50 up to about 1.1 µM and inactive = higher.

Experiments:
Assay in all cases: NCI-60 cell line screen, 48 h
RXF 631 = system: RXF 631
K562 = system: K562
NCI-H522 = system: NCI-H522
HCC 2998 = system: HCC 2998
IGROV-1 = system: IGROV-1
HT-29 = system: HT-29
SF-539 = system: SF-539
SNB-19 = system: SNB-19
Malme-3M = system: Malme-3M
U-251 = system: U-251
MOLT-4 = system: MOLT-4
OVCAR-5 = system: OVCAR-5
KM12 = system: KM12
A549 = system: A549
A498 = system: A498
LXFL 529 = system: LXFL 529
COLO 205 = system: COLO 205
LOX IMVI = system: LOX IMVI
UACC-257 = system: UACC-257
SW-620 = system: SW-620
HOP-92 = system: HOP-92
XF498 = system: XF498
HL-60 = system: HL-60
RPMI-8226 = system: RPMI-8226
OVCAR-8 = system: OVCAR-8
HCT-116 = system: HCT-116
786-0 = system: 786-0
KM-20L2 = system: KM-20L2
SK-MEL-2 = system: SK-MEL-2
NCI-H23 = system: NCI-H23
SNB-78 = system: SNB-78
UACC-62 = system: UACC-62
OVCAR-3 = system: OVCAR-3
SK-OV-3 = system: SK-OV-3
SNB-75 = system: SNB-75
DMS-273 = system: DMS-273
DLD-1 = system: DLD-1
TK-10 = system: TK-10
EKVX = system: EKVX
M14 = system: M14
DMS-114 = system: DMS-114
M19-MEL = system: M19-MEL
NCI-H460 = system: NCI-H460
ACHN = system: ACHN
CCRF-CEM = system: CCRF-CEM
RXF 393 = system: RXF 393
SK-MEL-28 = system: SK-MEL-28
HOP-62 = system: HOP-62
UO-31 = system: UO-31
NCI-H226 = system: NCI-H226
SK-MEL-5 = system: SK-MEL-5
HCT-15 = system: HCT-15
SN12C = system: SN12C
SR = system: SR
SF-295 = system: SF-295
HOP-18 = system: HOP-18
OVCAR-4 = system: OVCAR-4
SF-268 = system: SF-268
CAKI-1 = system: CAKI-1

For `CCCc1cc(OC(=O)c2c(O)cc(OC)cc2CCC)cc(O)c1C(=O)O`, the GI50 (RXF 631) was 26.3 µM (inactive), the GI50 (K562) was 32.5 µM (inactive) and the GI50 (NCI-H522) was 16 µM (inactive). For the same compound, the GI50 (HCC 2998) was 25.2 µM (inactive), the GI50 (IGROV-1) was 47.9 µM (inactive) and the GI50 (HT-29) was 33 µM (inactive). For the same compound, the GI50 (SF-539) was 18 µM (inactive), the GI50 (SNB-19) was 25.1 µM (inactive) and the GI50 (Malme-3M) was 17.5 µM (inactive). The GI50 (U-251) was 23.9 µM (inactive), the GI50 (MOLT-4) was 29.5 µM (inactive) and the GI50 (OVCAR-5) was 35 µM (inactive). For the same compound, the GI50 (KM12) was 28.2 µM (inactive), the GI50 (A549) was 30.2 µM (inactive) and the GI50 (A498) was 28.9 µM (inactive). The GI50 (LXFL 529) was 24.1 µM (inactive), the GI50 (COLO 205) was 26.4 µM (inactive) and the GI50 (LOX IMVI) was 23.8 µM (inactive). The GI50 (UACC-257) was 18.8 µM (inactive), the GI50 (SW-620) was 37.9 µM (inactive) and the GI50 (HOP-92) was 13.5 µM (inactive). For the same compound, the GI50 (XF498) was 25.9 µM (inactive), the GI50 (HL-60) was 23 µM (inactive) and the GI50 (RPMI-8226) was 24.2 µM (inactive). For the same compound, the GI50 (OVCAR-8) was 37.5 µM (inactive), the GI50 (HCT-116) was 17.4 µM (inactive) and the GI50 (786-0) was 36 µM (inactive). The GI50 (KM-20L2) was 37.4 µM (inactive), the GI50 (SK-MEL-2) was 20.5 µM (inactive) and the GI50 (NCI-H23) was 18 µM (inactive). The GI50 (SNB-78) was 25 µM (inactive), the GI50 (UACC-62) was 35.7 µM (inactive) and the GI50 (OVCAR-3) was 20.6 µM (inactive). The GI50 (SK-OV-3) was 22.4 µM (inactive), the GI50 (SNB-75) was 27.5 µM (inactive) and the GI50 (DMS-273) was 32.1 µM (inactive). For the same compound, the GI50 (DLD-1) was 36.5 µM (inactive), the GI50 (TK-10) was 48.5 µM (inactive) and the GI50 (EKVX) was 26.2 µM (inactive). For the same compound, the GI50 (M14) was 28.4 µM (inactive), the GI50 (DMS-114) was 19.6 µM (inactive) and the GI50 (M19-MEL) was 42.8 µM (inactive). The GI50 (NCI-H460) was 23.9 µM (inactive), the GI50 (ACHN) was 27.9 µM (inactive) and the GI50 (CCRF-CEM) was 32.8 µM (inactive). For the same compound, the GI50 (RXF 393) was 16.6 µM (inactive), the GI50 (SK-MEL-28) was 28.2 µM (inactive) and the GI50 (HOP-62) was 16.6 µM (inactive). The GI50 (UO-31) was 13 µM (inactive).
With `O=C(CC1(O)C(=O)Nc2c(Cl)cc(Cl)cc21)c1ccc(Br)cc1` (configuration not stated) the GI50 (NCI-H226) was 14.9 µM (inactive), the GI50 (SK-MEL-5) was 16.9 µM (inactive) and the GI50 (RXF 631) was 12.4 µM (inactive). For the same compound, the GI50 (K562) was 24.5 µM (inactive), the GI50 (NCI-H522) was 16.6 µM (inactive) and the GI50 (HCC 2998) was 39.5 µM (inactive). The GI50 (IGROV-1) was 18.2 µM (inactive), the GI50 (HCT-15) was 35 µM and the GI50 (HT-29) was 37.7 µM (inactive). For the same compound, the GI50 (SF-539) was 16.3 µM (inactive), the GI50 (SNB-19) was 16.3 µM (inactive) and the GI50 (Malme-3M) was > 41.3 µM (inactive). The GI50 (U-251) was 13.4 µM (inactive), the GI50 (MOLT-4) was 22.1 µM (inactive) and the GI50 (OVCAR-5) was 17.2 µM (inactive). For the same compound, the GI50 (SN12C) was 33.1 µM (inactive), the GI50 (KM12) was 15.2 µM (inactive) and the GI50 (A549) was 20.7 µM (inactive). For the same compound, the GI50 (SR) was 19.8 µM (inactive), the GI50 (A498) was > 49.2 µM (inactive) and the GI50 (LXFL 529) was > 37.9 µM (inactive). The GI50 (COLO 205) was > 40.7 µM (inactive), the GI50 (LOX IMVI) was 22.5 µM (inactive) and the GI50 (UACC-257) was 29.4 µM (inactive). The GI50 (SW-620) was 26.9 µM (inactive), the GI50 (HOP-92) was 15.7 µM (inactive) and the GI50 (HL-60) was 4.3 µM (inactive). For the same compound, the GI50 (RPMI-8226) was 13 µM (inactive), the GI50 (OVCAR-8) was 33.8 µM (inactive) and the GI50 (SF-295) was 29.5 µM (inactive). For the same compound, the GI50 (HCT-116) was 17.5 µM (inactive), the GI50 (786-0) was 13.2 µM (inactive) and the GI50 (KM-20L2) was 16.8 µM (inactive). For the same compound, the GI50 (HOP-18) was 15.7 µM (inactive), the GI50 (SK-MEL-2) was > 41.1 µM (inactive) and the GI50 (NCI-H23) was 14 µM (inactive). For the same compound, the GI50 (SNB-78) was 19.1 µM (inactive), the GI50 (UACC-62) was 9.08 µM (inactive) and the GI50 (OVCAR-3) was 14.1 µM (inactive). The GI50 (SK-OV-3) was 27 µM (inactive), the GI50 (SNB-75) was 17.1 µM (inactive) and the GI50 (DMS-273) was 13.5 µM (inactive). The GI50 (DLD-1) was 13.2 µM (inactive), the GI50 (TK-10) was 17.6 µM (inactive) and the GI50 (EKVX) was 15.2 µM (inactive). For the same compound, the GI50 (OVCAR-4) was 12.4 µM (inactive), the GI50 (M14) was 17.6 µM (inactive) and the GI50 (DMS-114) was 20.6 µM (inactive). For the same compound, the GI50 (M19-MEL) was 7.76 µM (inactive), the GI50 (NCI-H460) was 38.6 µM (inactive) and the GI50 (ACHN) was 15.3 µM (inactive). The GI50 (CCRF-CEM) was 14.9 µM (inactive), the GI50 (RXF 393) was 16 µM (inactive) and the GI50 (SK-MEL-28) was 19.7 µM (inactive). The GI50 (HOP-62) was 20.2 µM (inactive), the GI50 (SF-268) was 16.4 µM (inactive) and the GI50 (UO-31) was 12.9 µM (inactive). For the same compound, the GI50 (CAKI-1) was 16.1 µM (inactive).
